# Measurements published in patent publication US20170042989A1, “PHOTOSENSITIZED TRYPANOSOMATIDS AND VACCINE COMPOSITIONS THEREOF” (ROSALIND FRANKLIN UNIVERSITY OF MEDICINE AND SCIENCE, priority 2015, published 2017).
# Legend:
# Leishmania tropica [1] = experiment: Leishmania uptake of PCs by fluorescence microscopy; format: cell-based; details: fluorescent microscopy, Cy5 filter, exposure in the dark
# Method: (§1) Leishmania were suspended to 5×10^7-10^8 cells ml^−1 in HBSS-BSA for exposure to serial dilutions of PCs 1-4 in the dark overnight. Controls included cells exposed to diluent alone. J774 macrophages were treated as monolayer in HBSS-BSA or culture medium under otherwise the same conditions. All cultures were kept in the dark for various time periods up to 24 hrs.
# Nikon Eclipse 80i and TE2000-S microscopes with CCD cameras were used with Metamorphosis (version 6.1) or NIS Elements version AR 4.20.01 software for image capture and analysis. Concentrated cells (˜3 μl) on a glass slide under an 18 mm^2 glass coverslip were first scanned under phase contrast to localize cells. […] GFP/CFSE fluorescent Leishmania were further examined by using the FITC filter set. Images captured under different settings were merged by using the software programs mentioned. The filter sets (Chroma Technology Co., Brattleboro, Vt.) used were: (1) HQ620/60 (620-nm exciter), Q660LP (660-nm dichroic), and HQ700/80 (700-nm emitter) for phthalocyanines; and (2) HQ480/40 (480-nm exciter), Q505LP (505-nm dichroic), and HQ535/50 (535-nm emitter) for GFP and CFSE.
# Leishmania tropica [2] = experiment: Microscopy of Leishmania photolysis after PC sensitization and red light; format: cell-based; details: PC1/PC2: followed by red light; PC3/PC4: with or without red light
# Method: as §1
# Control and PC-sensitized Leishmania were washed and suspended in HBSS-BSA. The cell suspensions in 24-well culture plates and monolayers of J774 macrophages in 25 cm^2 TC flasks were exposed from the bottom to red light (wavelengths >650 nm) via a red filter (Smith-Victor Co., Barlett, Ill., USA; part #650021) over a light box for 20-30 min at a fluence of 1-2 J cm^2.
# Nikon Eclipse 80i and TE2000-S microscopes with CCD cameras were used with Metamorphosis (version 6.1) or NIS Elements version AR 4.20.01 software for image capture and analysis. Concentrated cells (˜3 μl) on a glass slide under an 18 mm^2 glass coverslip were first scanned under phase contrast to localize cells. […] GFP/CFSE fluorescent Leishmania were further examined by using the FITC filter set. Images captured under different settings were merged by using the software programs mentioned. […]
substance,measurement,setting,value
triethylene glycol substituted Zn(II)-phthalocyanine [PC4],uptake by Leishmania (PC fluorescence in cells),Leishmania tropica [1],no uptake
same,motility and structural integrity after PC sensitization,Leishmania tropica [2],retained their motility and cellular integrity
